Measurements: paper PMC6803969, “Pharmacokinetic Profiling and Simultaneous Determination of Thiopurine Immunosuppressants and Folic Acid by Chromatographic Methods” (Molecules, 2019)

Legend:
[1] = RP-TLC hydrophobicity assay (RP-18 plates, methanol/phosphate-buffered saline); assay type: physicochemical; details: extrapolated to pure phosphate-buffered saline
Protocol: In reversed-phase chromatography, retention of analytes is governed by hydrophobicity, and this parameter was evaluated using both TLC and HPLC techniques. Due to high affinity of investigated compounds for octadecylsilane chemically bonded to porous silica applied on chromatographic plates, several analyses with mixtures of phosphate-buffered saline with various concentrations of methanol as mobile phase were performed. […] RM values were obtained according to Equation (1):(1) RM=log(1/RF−1), where RF represents the retention factor. Furthermore, chromatographic parameter of hydrophobicity, RMw, was obtained by extrapolation to pure buffer using the linear Equation (2):(2) RM = RMw − SΦ, where S is the slope of the regression line and φ is the concentration (expressed as volume fraction) of methanol.
TLC experiments were performed on commercially available 10 × 10 cm RP-18 TLC plates (Merck, Darmstadt, Germany). Methanol-phosphate-buffered saline mixtures were used as mobile phases. The methanol volume fraction was varied from 20% to 80% in 5% steps. A sufficient amount of mobile phase was placed in a Camag flat-bottom chamber for 10 × 10 cm plates with a stainless-steel lid to have a level of 5 mm. After saturation of chambers with solvent vapor for 30 min, the plates were developed to a distance of 9 cm at room temperature, dried in open air for 5 min and visualized under λ = 254 nm UV light.

[2] = RP-HPLC hydrophobicity assay (Symmetry C18 column, methanol/phosphate-buffered saline); assay type: physicochemical; details: extrapolated to pure phosphate-buffered saline, 25 °C
Description: The obtained retention times, tR, were used to calculate log k values according to Equation (3): (3) logk=logtR−t0/t0, with t0 being the retention time of an unretained solute, sodium nitrate. Furthermore, chromatographic parameter of hydrophobicity, log kw C18, was obtained by extrapolation to pure buffer using the linear Equation (4):(4) logk = logkw − SΦ, where S is the slope of the regression line and φ is the concentration (expressed as volume fraction) of methanol.
Hydrophobicity of the compounds was also studied on a reversed-phase Symmetry C18 column (150 × 4.6 mm, 3.5 µm particle size) obtained by Waters (Milford, MA, USA). Methanol-phosphate-buffered saline mixtures were used as mobile phases. The methanol volume fraction was varied from 10% to 50% in 5% steps. Each mobile phase was shaken vigorously, filtrated through cellulose nitrate filter (0.45 μm, Sartorius, Goettingen, Germany) and degassed by sonication (5 min) before use.

[3] = Phospholipid binding assay (IAM-HPLC, IAM.PC.DD2 column); assay type: physicochemical; details: for log kw IAM, chromatographic parameter of lipophilicity obtained by IAM-HPLC: phosphate-buffered saline pH 7.4 without organic modifier, 25 °C
Protocol: The binding of compounds to the immobilized artificial membrane (IAM) was measured using commercially available immobilized phosphatidylcholine columns (IAM.PC.DD2, 100 x 4.6 mm, […]) obtained by Regis Technologies (Morton Grove, IL, USA). The mobile phase consisted of phosphate-buffered saline that was filtrated through cellulose nitrate filter and degassed (5 min) by sonication before use.

[4] = tested on: α1-acid glycoprotein (AGP); experiment: Protein binding assay, AGP-HPLC (Chiralpak-AGP column); details: phosphate buffer pH 7.0/iso-propanol gradient, 25 °C
Protocol: (§1) In this study, the gradient retention times are standardized using a calibration set of compounds with known percentage of plasma protein binding data (PPBlit).
(§2) Validation of the methods was performed by evaluation of retention of warfarin enantiomers. As retention time on HSA and AGP columns is dependent on the injected amount of compound, the smallest possible amount of sample was injected so that the compound would not saturate the specific binding site.
(§3) The interactions of analytes with plasma proteins human serum albumin (HSA) and α1-acid glycoprotein (AGP) have been measured using commercially available chemically bonded HSA (Chiralpak-HSA, 50 × 4.6 mm, 5 μm particle size) and AGP (Chiralpak-AGP, 50 × 4.6 mm, 5 μm particle size) columns obtained by ChromTech (Cedex, France). The mobile phase consisted of 20 mM potassium phosphate buffer with the pH adjusted to 7.0 (A) and iso-propanol (B). The gradient program was as follows: 0–3 min, linear gradient 0–30% B, 3–10 min, isocratic 30% B. The total run time was 15 min to allow re-equilibration of the protein phase with the buffer. Injection volume was set at 10 µL, and the measurements were carried out at 25.0 ± 0.1 °C and at flow rate 1.5 mL/min. The absorbance of the analytes during a chromatographic run was collected at the following wavelengths: 250, 280, 300, 320 and 340 nm.

[5] = target: human serum albumin (HSA) (Homo sapiens, UniProt P02768); experiment: Protein binding assay, HSA-HPLC (Chiralpak-HSA column); assay type: in vitro ADME; details: phosphate buffer pH 7.0/iso-propanol gradient, 25 °C
Protocol: as §1, §2, §3

[6] = higher levels of NaOH than 0.02 M (0.05 M and 0.1 M)
[7] = Extraction solvent evaluation / solubility; assay type: physicochemical
Protocol: Protocols utilizing aqueous or organic solvent extraction solutions (acidic, alkaline or neutral pH) combined with at ambient and elevated temperatures shaking and sonication procedures have all been reported. Therefore, one-variable-at-a-time method was applied to find a ubiquitous method suitable for all investigated analytes. […] Folic acid in solution is known to decompose when exposed to ultraviolet light and/or increased temperature; thus, all experiments were performed at ambient temperature using amber laboratory glassware.

human serum albumin (HSA), sequence (P02768 25-609): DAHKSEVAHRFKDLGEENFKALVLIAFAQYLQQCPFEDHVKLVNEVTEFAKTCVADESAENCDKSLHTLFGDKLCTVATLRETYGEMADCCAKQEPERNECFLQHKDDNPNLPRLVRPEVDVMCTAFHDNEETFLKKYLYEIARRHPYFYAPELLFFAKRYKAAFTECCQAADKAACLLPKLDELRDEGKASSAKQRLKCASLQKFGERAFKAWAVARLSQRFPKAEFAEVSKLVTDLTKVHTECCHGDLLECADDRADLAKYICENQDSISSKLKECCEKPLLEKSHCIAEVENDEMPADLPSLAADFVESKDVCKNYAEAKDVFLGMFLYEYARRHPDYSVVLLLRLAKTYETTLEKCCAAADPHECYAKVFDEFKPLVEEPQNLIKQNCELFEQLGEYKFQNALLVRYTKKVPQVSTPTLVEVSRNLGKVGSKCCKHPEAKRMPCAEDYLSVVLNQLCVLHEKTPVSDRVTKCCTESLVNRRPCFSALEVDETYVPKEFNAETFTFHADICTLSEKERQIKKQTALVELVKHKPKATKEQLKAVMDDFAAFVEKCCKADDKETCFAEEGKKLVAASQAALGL

| RMw, chromatographic parameter of hydrophobicity obtained by RP-TLC [1] | log kw C18, chromatographic parameter of hydrophobicity obtained by RP-HPLC [2] | log kw IAM, chromatographic parameter of lipophilicity obtained by IAM-HPLC [3] | PPBAGP, percentage of analyte bound to α1-acid glycoprotein (AGP) obtained by AGP-HPLC [4] [%] | PPBHSA, percentage of analyte bound to human serum albumin (HSA) obtained by HSA-HPLC [5] [%] | stability in NaOH extraction solution [6] | solubility ([7]; in basic aqueous solutions) | extraction efficiency ([7]; in methanol) [%] | solubility ([7]; in organic solvents as well as in water) | extraction efficiency ([7]; in water) [%] | difference between log kw C18 and log kw IAM values [3] | Structure (SMILES) |
| --- | --- | --- | --- | --- | --- | --- | --- | --- | --- | --- | --- |
| 0.23 | 0.45 | −0.19 | 22.15 |  |  |  |  |  |  |  | Sc1ncnc2nc[nH]c12 [6-mercaptopurine] |
| 0.21 | 0.32 | 0.03 | 45.96 | 24.11 |  |  |  |  |  |  | Nc1nc2nc[nH]c2c(=S)[nH]1 [6-thioguanine] |
| 1.41 | 1.34 | 0.68 | 75.96 | 49.22 | degradation |  |  |  |  |  | Cn1cnc([N+](=O)[O-])c1Sc1ncnc2nc[nH]c12 [Azathioprine, azathioprine] |
| 0.57 | 0.99 | −0.26 | 3.45 | 69.40 |  | soluble in basic aqueous solutions | 4.6 | slightly soluble | 22.4 | 1.25 | Nc1nc2ncc(CNc3ccc(C(=O)N[C@@H](CCC(=O)O)C(=O)O)cc3)nc2c(=O)[nH]1 [Folic acid, folic acid] |
